Key:
[1] = tested on: RA patients; conditions: cited from earlier work; for clinical efficacy in the underlying clinical studies: RA patients
[2] = tested on: 14-analyte M-DP panel; assay: Pharmacodynamic M-DP score, 14-analyte panel (SomaLogic SOMAscan), clinical studies in RA; assay type: in vivo, human; conditions: for M-DP score mean difference ± SD, Good vs. No / M-DP score mean ± SD, DAS28-CRP response group Good / M-DP score mean ± SD, DAS28-CRP response group Moderate / M-DP score mean ± SD, DAS28-CRP response group No: response at week 24; for GMean M-DP scores, change: week 4 or latest time point evaluated (weeks 28, 28, and 12, respectively)
Description: (§1) Serum samples and data from eight interventional clinical studies with seven different active treatments for RA or placebo treatment were obtained and analyzed: sirukumab (anti-IL-6) and placebo treatments in SIRROUND-M (NCT01689532; Takeuchi T, et al. Arthritis Res Ther. 2018 Mar. 7; 20(1): 42), SIRROUND-D (NCT01604343; Takeuchi T, et al. Ann Rheum Dis. 2017 Dec.; 76(12): 2001-2008), and SIRROUND-T (NCT01606761; Aletaha D, et al. Lancet. 2017 Mar. 25; 389(10075): 1206-1217); sirukumab and adalimumab (anti-TNF-alpha) treatments in SIRROUND-H (NCT02019472; Taylor PC, et al. Ann Rheum Dis. 2018 May; 77(5): 658-666); golimumab (anti-TNF-alpha) treatment in GO-FURTHER (NCT00973479; Weinblatt ME, et al. Ann Rheum Dis. 2013 March; 72(3): 381-9); guselkumab (anti-IL-23p19), ustekinumab (anti-IL-12/IL-23p40), and placebo treatments in CNTO1275ARA2001 (NCT01645280; Cox JD, et al. […]); JNJ-40346527 (colony-stimulating factor-1 inhibitor) and placebo treatments in 40346527ARA2001 (NCT01597739; Genovese MC, et al. J Rheumatol. 2015 October; 42(10): 1752-60). Plasma samples were obtained from the RA-MAP TACERA study (Cope AP, et al. Nat Rev Rheumatol. 2018 January; 14(1): 53-60) before (baseline) and 6-months after initiation of conventional synthetic disease-modifying anti-rheumatic drugs (csDMARDs). Details of treatment dose groups, concomitant methotrexate use, and previous experience with csDMARDs and biologics are reported in Table 1. The studies were conducted in accordance with the Declaration of Helsinki. The study protocols were reviewed and approved by an independent ethics committee or institutional review board for each study center. Written informed consent was obtained from all patients before study entry. Additional study details and patient characteristics are available in the referenced publications for each study. For SIRROUND-D and SIRROUND-T studies, sets of serum samples from demographically-matched healthy controls were obtained from commercial sources (BioIVT, Westbury, N.Y.).
(§2) Serum samples from baseline (week 0) and the time points indicated in Table 1 were provided for quantification of 1189 serum analytes using the SomaScan v3.1 platform (SomaLogic, Boulder, Colo.; www.somalogic.com), with the exception of RA-MAP TACERA, for which plasma samples were analyzed for 1301 analytes using the SomaScan v3.2 platform. For some studies, a redacted dataset reporting data for a subset of the analytes was obtained. Relative fluorescence unit (RFU) data were sequentially normalized for hybridization controls (internal standards per samples), median signal across all samples (assumes same total protein concentration across sample set), and calibration controls (common sample standards across analysis plates). Samples failed quality control standards defined by Somalogic were excluded from analyses. The normalized RFU values were log2-transformed for subsequent analyses.
(§3) Changes in analyte expression levels were calculated for individual samples as the log2 transform of the ratio of the analyte level at the indicated time point (visit level) over the analyte level at baseline (baseline level) for a given subject, i.e., log 2(visit level/baseline level). Changes in RA disease-associated analytes per sample were summarized using a pharmacodynamic (PD) molecular disease profile (M-DP) score, defined as the median value of the log 2(visit level/baseline level) values for analytes in the defined M-DP analyte set. […] PD M-DP scores in the log 2(visit level/baseline level) scale can be transformed to percent change from baseline, using the transformation: (2^M-DP score−1)×100%.
Statistical analyses were performed on log2-transformed data, for either normalized Relative fluorescence unit (RFU) datasets or within-subject fold/baseline datasets. Significance of differences between groups was evaluated using General Linear Models, with t-tests when comparing two groups. […]

[3] = tested on: 4-analyte M-DP panel (CRP, CXCL10, CXCL13, SAA); assay: Pharmacodynamic M-DP score, 4-analyte panel CRP, CXCL10, CXCL13, SAA (SOMAscan), clinical studies in RA; assay type: in vivo, human; conditions: for M-DP score mean ± SD, All treated / M-DP score mean difference ± SD, Good vs. No / M-DP score mean ± SD, DAS28-CRP response group Good / M-DP score mean ± SD, DAS28-CRP response group Moderate / M-DP score mean ± SD, DAS28-CRP response group No: 4-analyte, CNTO1275ARA2001, ustekinumab SC 90 mg or guselkumab SC 50 or 200 mg; for M-DP score mean difference ± SD, Good vs. No / M-DP score mean ± SD, DAS28-CRP response group Good / M-DP score mean ± SD, DAS28-CRP response group Moderate / M-DP score mean ± SD, DAS28-CRP response group No: response at week 24
Description: as §1, §2, §3
In selecting the best minimal set of analytes that performs similarly to the full 14-analyte set, analyte sets that results in significant associations between DAS28-CRP EULAR good vs. no response with p<0.05 for each study were prioritized (Table 4). […]

[4] = tested on: 4-analyte M-DP panel (CRP, SAA, CXCL10, CXCL13); assay: Pharmacodynamic 4-analyte M-DP score by MSD U-PLEX, CORRONA CERTAIN biorepository serum; assay type: in vivo, human; conditions: U-PLEX 4-analyte; for M-DP score GMean decrease: all treated
Description: PD M-DP scores for the 4-analyte panel were calculated based on these concentrations of CRP, SAA, CXCL10, and CXCL13.
These samples were not previously evaluated for the M-DP panel development or reduction.

[5] = CNTO1275ARA2001, score at week 4, ustekinumab SC 90 mg or guselkumab SC 50 or 200 mg
[6] = CNTO1275ARA2001, score at week 28, ustekinumab SC 90 mg or guselkumab SC 50 or 200 mg
[7] = CERTAIN Biorepository RA patients

Substance	clinical efficacy in the underlying clinical studies [1]	M-DP score mean ± SD, All treated [2, 5]	M-DP score mean difference ± SD, Good vs. No [2, 5]	M-DP score mean ± SD, DAS28-CRP response group Good [2, 5]	M-DP score mean ± SD, DAS28-CRP response group Moderate [2, 5]	M-DP score mean ± SD, DAS28-CRP response group No [2, 5]	M-DP score mean ± SD, All treated [2, 6]	M-DP score mean difference ± SD, Good vs. No [2, 6]	M-DP score mean ± SD, DAS28-CRP response group Good [2, 6]	M-DP score mean ± SD, DAS28-CRP response group Moderate [2, 6]	M-DP score mean ± SD, DAS28-CRP response group No [2, 6]	GMean M-DP scores, change [2]	M-DP score mean ± SD, All treated ([3]; score at week 4)	M-DP score mean difference ± SD, Good vs. No ([3]; score at week 4)	M-DP score mean ± SD, DAS28-CRP response group Good ([3]; score at week 4)	M-DP score mean ± SD, DAS28-CRP response group Moderate ([3]; score at week 4)	M-DP score mean ± SD, DAS28-CRP response group No ([3]; score at week 4)	M-DP score mean ± SD, All treated ([3]; score at week 28)	M-DP score mean difference ± SD, Good vs. No ([3]; score at week 28)	M-DP score mean ± SD, DAS28-CRP response group Good ([3]; score at week 28)	also measured
guselkumab [reference compound]	not clinically efficacious	−0.01 ± 0.19 log2 (fold/baseline)	0.00 ± 0.19 log2 (fold/baseline)	−0.04 ± 0.19 log2 (fold/baseline)	0.02 ± 0.20 log2 (fold/baseline)	−0.04 ± 0.19 [12] log2 (fold/baseline)	−0.03 ± 0.26 log2 (fold/baseline)	−0.03 ± 0.21 log2 (fold/baseline)	−0.08 ± 0.10 log2 (fold/baseline)	0.01 ± 0.34 log2 (fold/baseline)	−0.05 ± 0.25 [12] log2 (fold/baseline)	not decreased	−0.12 ± 0.39 log2 (fold/baseline)	−0.11 ± 0.33 (0.4781) log2 (fold/baseline)	−0.19 ± 0.30 log2 (fold/baseline)	−0.11 ± 0.49 log2 (fold/baseline)	−0.08 ± 0.35 log2 (fold/baseline)	−0.07 ± 0.37 log2 (fold/baseline)	−0.12 ± 0.38 (0.5645) log2 (fold/baseline)	−0.12 ± 0.38 log2 (fold/baseline)	M-DP score mean ± SD, DAS28-CRP response group Moderate ([3]; score at week 28): −0.10 ± 0.39 log2 (fold/baseline); M-DP score mean ± SD, DAS28-CRP response group No ([3]; score at week 28): −0.01 ± 0.38 log2 (fold/baseline)
rituximab	–	–	–	–	–	–	–	–	–	–	–	–	–	–	–	–	–	–	–	–	EULAR DAS28-CRP clinical response rate, good response [1, 7]: 50%; EULAR DAS28-CRP clinical response rate, moderate response [1, 7]: 32%; EULAR DAS28-CRP clinical response rate, no response [1, 7]: 18%; M-DP score GMean decrease ([4]; 3-months): 30%; M-DP score GMean decrease ([4]; 6-months): 36%; M-DP score mean ± SD, 6-month DAS28-CRP response group Good ([4]; score at month 3M): −0.44 ± 1.13 [7] log2 (fold/baseline); M-DP score mean ± SD, 6-month DAS28-CRP response group Moderate ([4]; score at month 3M): −0.71 ± 1.62 [4] log2 (fold/baseline); M-DP score mean ± SD, 6-month DAS28-CRP response group No ([4]; score at month 3M): −0.23 n.a. [1] log2 (fold/baseline); M-DP score mean ± SD, All treated ([4]; score at month 3M): −0.51 ± 1.20 [12] log2 (fold/baseline); M-DP score mean ± SD, 6-month DAS28-CRP response group Good ([4]; score at month 6M): −0.96 ± 0.79 [7]* log2 (fold/baseline); M-DP score mean ± SD, 6-month DAS28-CRP response group Moderate ([4]; score at month 6M): −0.24 ± 1.23 [4] log2 (fold/baseline); M-DP score mean ± SD, 6-month DAS28-CRP response group No ([4]; score at month 6M): −0.01 n.a. [1] log2 (fold/baseline); M-DP score mean ± SD, All treated ([4]; score at month 6M): −0.64 ± 0.95 [12] * log2 (fold/baseline)
ustekinumab [reference compound]	not clinically efficacious	−0.08 ± 0.34 log2 (fold/baseline)	−0.32 ± 0.32 log2 (fold/baseline)	−0.24 ± 0.34 log2 (fold/baseline)	−0.04 ± 0.29 log2 (fold/baseline)	0.08 ± 0.31 [31] log2 (fold/baseline)	−0.09 ± 0.43 log2 (fold/baseline)	−0.49 ± 0.41 log2 (fold/baseline)	−0.34 ± 0.33 log2 (fold/baseline)	−0.05 ± 0.23 log2 (fold/baseline)	−0.15 ± 0.49 [13] log2 (fold/baseline)	not decreased	−0.05 ± 0.77 log2 (fold/baseline)	−0.81 ± 0.83 (0.0469) log2 (fold/baseline)	−0.49 ± 0.27 log2 (fold/baseline)	0.06 ± 0.41 log2 (fold/baseline)	0.33 ± 0.98 log2 (fold/baseline)	0.04 ± 0.84 log2 (fold/baseline)	−0.94 ± 0.82 (0.0323) log2 (fold/baseline)	−0.53 ± 0.68 log2 (fold/baseline)	M-DP score mean ± SD, DAS28-CRP response group Moderate ([3]; score at week 28): −0.04 ± 0.53 log2 (fold/baseline); M-DP score mean ± SD, DAS28-CRP response group No ([3]; score at week 28): 0.41 ± 0.94 log2 (fold/baseline); M-DP score effect size (decrease), EULAR DAS28-CRP good responders ([3]; week 4 M-DP scores): > 1.0 standard deviation
